Results: ChEMBL document CHEMBL1201862, “PubChem BioAssay data set” (2004)
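Growth conditions: 96-well plates. Treatment: test compound, 48 hours, 5 concentrations. Analysis: linear interpolation between bracketing concentrations; unreached endpoints set to highest concentration. GI50 is the concentration that inhibits growth by half.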 Calls of active or inactive are those of the source. Cut-off read from the data, not from the text of the source: active = GI50 up to about 1.1 µM and inactive = higher.

Experiments:
Test in all cases: NCI-60 cell line screen, 48 h
NCI-H226 = system: NCI-H226
SK-MEL-5 = system: SK-MEL-5
HOP-92 = system: HOP-92
SF-268 = system: SF-268
KM-20L2 = system: KM-20L2
DLD-1 = system: DLD-1
UACC-257 = system: UACC-257
NCI-H522 = system: NCI-H522
HOP-62 = system: HOP-62
HCC 2998 = system: HCC 2998
MCF7 = system: MCF7
HCT-15 = system: HCT-15
Malme-3M = system: Malme-3M
LOX IMVI = system: LOX IMVI
EKVX = system: EKVX
CAKI-1 = system: CAKI-1
SF-539 = system: SF-539
M14 = system: M14
SR = system: SR
TK-10 = system: TK-10

Compound	GI50 (NCI-H226)	GI50 (SK-MEL-5)	GI50 (HOP-92)	GI50 (SF-268)	GI50 (KM-20L2)	GI50 (DLD-1)	GI50 (UACC-257)	GI50 (NCI-H522)	GI50 (HOP-62)	GI50 (HCC 2998)	GI50 (MCF7)	GI50 (HCT-15)	GI50 (Malme-3M)	GI50 (LOX IMVI)	GI50 (EKVX)	GI50 (CAKI-1)	GI50 (SF-539)	GI50 (M14)	GI50 (SR)	GI50 (TK-10)
Cc1c2cnccc2c(C)c2c1c1ccccc1n2CCCCCCNCc1ccccc1	1.55 µM (inactive)	2.36 µM (inactive)	2.03 µM (inactive)	1.41 µM (inactive)	1.49 µM (inactive)	0.879 µM (active)	1.96 µM (inactive)	2.15 µM (inactive)	4.17 µM (inactive)	1.88 µM (inactive)	1.45 µM (inactive)	1.31 µM	2.44 µM (inactive)	1.07 µM (active)	2.11 µM (inactive)	1.89 µM (inactive)	1.87 µM (inactive)	–	–	–
O=C1C(Cl)N(c2ccccc2)C1c1c[nH]c2ccccc12 (stereo not drawn)	–	> 100 µM (inactive)	> 100 µM (inactive)	> 100 µM (inactive)	> 100 µM (inactive)	–	> 100 µM (inactive)	> 100 µM (inactive)	> 100 µM (inactive)	–	–	–	> 100 µM (inactive)	–	> 100 µM (inactive)	–	> 100 µM (inactive)	> 100 µM (inactive)	> 100 µM (inactive)	> 100 µM (inactive)
c1ccc2cc3n[se]nc3cc2c1	–	68.1 µM (inactive)	–	> 100 µM (inactive)	> 100 µM (inactive)	62.4 µM (inactive)	> 100 µM (inactive)	> 100 µM (inactive)	–	38.9 µM (inactive)	–	> 100 µM	> 100 µM (inactive)	> 100 µM (inactive)	> 100 µM (inactive)	> 100 µM (inactive)	37.6 µM (inactive)	> 100 µM (inactive)	–	> 100 µM (inactive)
COc1ccc2c(c1)CC1Cc3ccccc3CCN1C2 (stereo not drawn)	89.1 µM (inactive)	20.2 µM (inactive)	27.7 µM (inactive)	> 100 µM (inactive)	–	–	52.8 µM (inactive)	15.3 µM (inactive)	6.14 µM (inactive)	35.2 µM (inactive)	74.5 µM (inactive)	61.2 µM	42.3 µM (inactive)	20 µM (inactive)	59 µM (inactive)	20.3 µM (inactive)	31.1 µM (inactive)	23.6 µM (inactive)	65.8 µM (inactive)	24.5 µM (inactive)
COc1nc2ccc(CNc3ccc(C(=O)NC(CCC(=O)O)C(=O)O)cc3)cc2nc1OC (stereo not drawn)	> 100 µM (inactive)	> 100 µM (inactive)	–	> 100 µM (inactive)	–	–	> 100 µM (inactive)	> 100 µM (inactive)	> 100 µM (inactive)	> 100 µM (inactive)	> 100 µM (inactive)	53.1 µM	90.8 µM (inactive)	32.8 µM (inactive)	> 100 µM (inactive)	–	–	> 100 µM (inactive)	> 100 µM (inactive)	> 100 µM (inactive)
C=C(C(=O)C(=O)Oc1ccc(Cl)cc1)C(=O)c1ccc(C)cc1	> 100 µM (inactive)	67.6 µM (inactive)	> 100 µM (inactive)	46.8 µM (inactive)	59.7 µM (inactive)	28.4 µM (inactive)	71.8 µM (inactive)	17.9 µM (inactive)	> 100 µM (inactive)	26.5 µM (inactive)	–	38.8 µM	78.3 µM (inactive)	< 0.01 µM (active)	> 100 µM (inactive)	94.4 µM (inactive)	18.4 µM (inactive)	28.3 µM (inactive)	13.1 µM (inactive)	> 100 µM (inactive)
C/C(=C1/N=C(c2cc([N+](=O)[O-])ccc2Cl)N(c2ccc(Br)cc2)C1=O)c1cc2ccccc2oc1=O	> 100 µM (inactive)	23.4 µM (inactive)	–	39.6 µM (inactive)	17.6 µM (inactive)	22.1 µM (inactive)	45.8 µM (inactive)	10.6 µM (inactive)	> 100 µM (inactive)	24 µM (inactive)	–	8.22 µM	34.8 µM (inactive)	17.3 µM (inactive)	> 100 µM (inactive)	12.9 µM (inactive)	30.1 µM (inactive)	25.9 µM (inactive)	14.9 µM (inactive)	–
O=C1OC2(OC2c2ccc(Cl)cc2)c2ccccc21 (stereo not drawn)	> 100 µM (inactive)	–	> 100 µM (inactive)	> 100 µM (inactive)	> 100 µM (inactive)	> 100 µM (inactive)	–	31.9 µM (inactive)	20.4 µM (inactive)	> 100 µM (inactive)	–	> 100 µM	> 100 µM (inactive)	17.8 µM (inactive)	> 100 µM (inactive)	> 100 µM (inactive)	> 100 µM (inactive)	> 100 µM (inactive)	> 100 µM (inactive)	> 100 µM (inactive)
C=CCP(=O)(CC=C)C(Cl)Cl	> 100 µM (inactive)	> 100 µM (inactive)	> 100 µM (inactive)	–	–	–	> 100 µM (inactive)	> 100 µM (inactive)	> 100 µM (inactive)	> 100 µM (inactive)	> 100 µM (inactive)	> 100 µM	–	> 100 µM (inactive)	–	> 100 µM (inactive)	–	> 100 µM (inactive)	> 100 µM (inactive)	> 100 µM (inactive)
O=[N+]([O-])C(=C/c1ccccc1)/C(=C\c1ccccc1)[N+](=O)[O-]	19.1 µM (inactive)	15.9 µM (inactive)	21.3 µM (inactive)	26.7 µM (inactive)	–	–	17 µM (inactive)	–	19.1 µM (inactive)	21.6 µM (inactive)	14.9 µM (inactive)	–	–	14.7 µM (inactive)	17.3 µM (inactive)	15.7 µM (inactive)	1.6 µM (inactive)	19.1 µM (inactive)	–	16.1 µM (inactive)
COc1cc2c(cc1OC)-c1cc3ccccc3c(=O)n1CC2	26.8 µM (inactive)	7.26 µM (inactive)	14.1 µM (inactive)	24.9 µM (inactive)	–	–	40.8 µM (inactive)	16.1 µM (inactive)	5.19 µM (inactive)	16.6 µM (inactive)	28.3 µM (inactive)	–	16.4 µM (inactive)	10.3 µM (inactive)	24.6 µM (inactive)	27.2 µM (inactive)	14.1 µM (inactive)	31.2 µM (inactive)	14.3 µM (inactive)	19.9 µM (inactive)
NC1(C(=O)O)CCCC1 [CYCLOLEUCINE]	> 625 µM (inactive)	> 625 µM (inactive)	> 625 µM (inactive)	> 177 µM (inactive)	> 625 µM (inactive)	> 625 µM (inactive)	> 625 µM (inactive)	> 625 µM (inactive)	> 625 µM (inactive)	> 625 µM (inactive)	> 625 µM (inactive)	> 625 µM	> 625 µM (inactive)	> 625 µM (inactive)	> 578 µM (inactive)	> 625 µM (inactive)	> 625 µM (inactive)	–	–	–
